Reference: patent EP1330254B1, “TREATMENT OF CANCERS BY APLIDINE IN CONJUNCTION WITH CARNITINE OR ACETYLCARNITINE” (priority 2000, dated 2002)
Starred links: 1 amine or outer side, 2 acyl side, 3 side chain; linkers in the order of their positions; H or OH if unused. Positions of bridges follow the written chain, without caps; N, C: chain ends. Non-standard residues stand in square brackets, D forms with d. Residues, ends and D or L forms follow the SMILES beside them. *: point of attachment. X1 = CC[C@H](C)[C@@H](N[*:1])[C@@H](O)CC(=O)O[C@H](C(=O)[C@H](C)C(=O)[*:2])C(C)C; NMeY = CN[C@@H](Cc1ccc(O)cc1)C(=O)O; dNMeL = CN[C@H](CC(C)C)C(=O)O; Pyruvoyl = CC(=O)C(=O)*

Key:
[1] = Phase I study, 24h continuous infusion every other week: toxicities; format: in vivo, human
Protocol: A phase I and pharmacokinetic study of aplidine, given as a 24h continuous infusion every other week in patients with solid tumours and non-Hodgkin lymphoma
Characterisation of Muscular Toxicity (DLT)

[2] = stability of aplidine solution and lyophilised formulation; format: physicochemical; conditions: solubilised aplidine, heat and light stress testing conditions
Protocol: In a currently preferred embodiment freeze-drying was performed from a 500 mg/mL solution of aplidine in 40% (v/v) tert-butanol in Water for Injection (WfI) containing 25 mg/mL D-mannitol as bulking agent.

B16 melanoma = conditions: mice; cited from earlier work
[3] = 200 mcg/m^2/2wks, patients affected of 3
[4] = 400 mcg/m^2/2wks, patients affected of 3
[5] = 800 mcg/m^2/2wks, patients affected of 3
[6] = 1600 mcg/m^2/2wks, patients affected of 6
[7] = 3200 mcg/m^2/2wks, patients affected of 3
[8] = 4000 mcg/m^2/2wks, patients affected of 3
[9] = 5000 mcg/m^2/2wks, patients affected of 3
[10] = 6000 mcg/m^2/2wks, patients affected of 12
[11] = 7000 mcg/m^2/2wks, patients affected of 7

For CC[C@H](C)[C@H]1NC(=O)[C@@H](NC(=O)[C@@H](CC(C)C)N(C)C(=O)[C@@H]2CCCN2C(=O)C(C)=O)[C@@H](C)OC(=O)[C@H](Cc2ccc(OC)cc2)N(C)C(=O)[C@@H]2CCCN2C(=O)[C@H](CC(C)C)NC(=O)[C@@H](C)C(=O)[C@H](C(C)C)OC(=O)C[C@@H]1O [aplidine, Dehydrodidemnin B] (Pyruvoyl-P[dNMeL]T[X1]LP[NMeY](Me); ester 3-C), the “muscle biopsies, E/M” value ([1]; 2 patients) was “partial disappearance of thick filaments of myosin”, the CPK elevations ([1]; 3 patients (5000 and 6000 µg/m^2), CPK MM increase) was “minor elevations of CPKs (≥G2)” and the “Nausea/vomiting G2” value [1, 3] was 2. The “Transaminitis G2” value [1, 3] was 1, the “Asthenia G2” value [1, 4] was 2 and the “Hypertension G2” value [1, 4] was 1. For the same compound, the “Nausea/vomiting G2” value [1, 4] was 1, the “Flushing G1” value [1, 5] was 1 and the “Muscle cramps G1+G2” value [1, 5] was 2. For the same compound, the “Asthenia G2” value [1, 6] was 2, the “Asthenia G3” value [1, 6] was 1 and the “Muscle cramps G1+G2” value [1, 6] was 1. The “Nausea/vomiting G2” value [1, 6] was 4, the “Transaminitis G3” value [1, 6] was “(1)” and the “Asthenia G2” value [1, 7] was 1. For the same compound, the “Flushing G1” value [1, 7] was 1, the “Muscle cramps G1+G2” value [1, 7] was 2 and the “Muscle pain G2” value [1, 7] was “(1)”. For the same compound, the “Nausea/vomiting G3” value [1, 7] was “(1)”, the “Asthenia G2” value [1, 8] was 1 and the “Flushing G1” value [1, 8] was 1. The “Muscle cramps G1+G2” value [1, 8] was 2, the “Muscle pain G1” value [1, 8] was 2 and the “Nausea/vomiting G2” value [1, 8] was 2. The “Pain central catheter G2” value [1, 8] was 2, the “Asthenia G3” value [1, 9] was “(1)” and the “CPK elevation G3” value [1, 9] was “(1) [1]”. The “CPK elevation G4” value [1, 9] was “(1) [1]”, the “Muscle cramps G1+G2” value [1, 9] was 2 and the “Muscle pain G1” value [1, 9] was 1. For the same compound, the “Muscle weakness G1” value [1, 9] was 1, the “Nausea/vomiting G2” value [1, 9] was 1 and the “Transaminitis G2” value [1, 9] was 1. For the same compound, the “dose limiting toxicity (drug induced muscular changes)” value ([1]; 6000 mcg/m^2) was 1/9, the “Asthenia G2” value [1, 10] was 6 and the “CPK elevation G2” value [1, 10] was 1(1). The “CPK elevation G3” value [1, 10] was 1(1), the “Muscle cramps G1+G2” value [1, 10] was 1 and the “Muscle pain G1” value [1, 10] was 1. The “Muscle pain G2” value [1, 10] was 2, the “Muscle weakness G1” value [1, 10] was 1(1) and the “Muscle weakness G2” value [1, 10] was 1(1). For the same compound, the “Nausea/vomiting G2” value [1, 10] was 2, the “Asthenia G2” value [1, 11] was 2 and the “CPK elevation G2” value [1, 11] was 1. For the same compound, the “Flushing G1” value [1, 11] was 1, the “Muscle pain G1” value [1, 11] was 1 and the “Nausea/vomiting G2” value [1, 11] was 1. For the same compound, the “Neutrophenia G4” value [1, 11] was 1, the “Transaminitis G2” value [1, 11] was 1 and the “toxicity recovered after treatment discontinuation” value ([1]; Pat #27, 6000 µg/m^2) was at most 3 weeks. For the same compound, the degradation [2] was “substantial degradation”, the “activity against implanted tumour” value (B16 melanoma) was “active” and the optimal dose (B16 melanoma) was 160 micrograms/kg.
